Legend:
Assay in all cases: KINOMEscan
Assay type in all cases: binding
EPHB4 = EPHB4 (Homo sapiens (Human), UniProt P54760); conditions: EPHB4, 10000 nM; read-out: Percent Control
p38-beta = p38-beta (Homo sapiens (Human), UniProt Q15759); conditions: 10000 nM, read-out: Percent Control
MARK2 = MARK2 (Homo sapiens (Human), UniProt Q7KZI7); conditions: MARK2, 10000 nM; read-out: Percent Control
PRKG2 = PRKG2 (Homo sapiens (Human), UniProt Q13237); conditions: PRKG2, 10000 nM; read-out: Percent Control
LYN = LYN (Homo sapiens (Human), UniProt P07948); conditions: 10000 nM, read-out: Percent Control
SNARK = SNARK (Homo sapiens (Human), UniProt Q9H093); conditions: 10000 nM, read-out: Percent Control
ITK = ITK (Homo sapiens (Human), UniProt Q08881); conditions: 10000 nM, read-out: Percent Control
Chain of ITK (Q08881 whole entry): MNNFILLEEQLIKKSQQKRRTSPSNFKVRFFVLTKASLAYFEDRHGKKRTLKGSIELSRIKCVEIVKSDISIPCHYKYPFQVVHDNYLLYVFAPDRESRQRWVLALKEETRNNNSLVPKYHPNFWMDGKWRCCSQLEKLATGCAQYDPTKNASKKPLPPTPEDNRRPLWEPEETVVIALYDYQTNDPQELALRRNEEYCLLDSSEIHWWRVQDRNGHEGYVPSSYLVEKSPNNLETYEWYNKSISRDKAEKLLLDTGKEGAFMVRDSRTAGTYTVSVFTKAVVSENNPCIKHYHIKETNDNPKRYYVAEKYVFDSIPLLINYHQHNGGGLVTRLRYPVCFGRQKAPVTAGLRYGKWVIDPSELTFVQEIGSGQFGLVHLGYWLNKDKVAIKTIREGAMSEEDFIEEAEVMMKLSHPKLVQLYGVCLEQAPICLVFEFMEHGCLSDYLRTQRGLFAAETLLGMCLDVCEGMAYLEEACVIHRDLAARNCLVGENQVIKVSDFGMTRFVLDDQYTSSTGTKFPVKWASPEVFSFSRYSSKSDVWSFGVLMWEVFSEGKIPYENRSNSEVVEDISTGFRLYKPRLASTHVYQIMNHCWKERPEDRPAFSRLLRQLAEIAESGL

[1] = target: RPS6KA5(Kin.Dom.2-C-terminal) (Homo sapiens (Human), UniProt O75582); conditions: 10000 nM, read-out: Percent Control
Chain of RPS6KA5(Kin.Dom.2-C-terminal) (O75582 426-687): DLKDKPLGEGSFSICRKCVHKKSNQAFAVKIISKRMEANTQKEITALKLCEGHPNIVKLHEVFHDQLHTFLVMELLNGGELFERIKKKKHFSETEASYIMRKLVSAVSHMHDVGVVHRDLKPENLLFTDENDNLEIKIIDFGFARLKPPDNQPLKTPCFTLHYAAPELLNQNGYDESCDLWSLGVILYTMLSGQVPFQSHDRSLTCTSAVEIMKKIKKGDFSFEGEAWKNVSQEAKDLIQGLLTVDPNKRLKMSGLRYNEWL

MTOR = MTOR (Homo sapiens (Human), UniProt P42345); conditions: 10000 nM, read-out: Percent Control
ROCK2 = ROCK2 (Homo sapiens (Human), UniProt O75116); conditions: ROCK2, 10000 nM; read-out: Percent Control
ERK1 = ERK1 (Homo sapiens (Human), UniProt P27361); conditions: ERK1, 10000 nM; read-out: Percent Control
Chain of ERK1 (P27361 whole entry): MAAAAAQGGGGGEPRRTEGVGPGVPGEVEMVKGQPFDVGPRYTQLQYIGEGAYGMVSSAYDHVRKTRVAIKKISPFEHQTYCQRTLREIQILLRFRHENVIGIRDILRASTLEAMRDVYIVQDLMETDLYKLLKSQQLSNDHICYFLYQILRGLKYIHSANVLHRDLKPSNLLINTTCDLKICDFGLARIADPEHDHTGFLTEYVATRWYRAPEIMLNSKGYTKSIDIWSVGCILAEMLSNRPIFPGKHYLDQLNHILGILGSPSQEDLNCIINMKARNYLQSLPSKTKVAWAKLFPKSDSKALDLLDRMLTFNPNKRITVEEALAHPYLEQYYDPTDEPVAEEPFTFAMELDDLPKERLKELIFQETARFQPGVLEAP

RET(V804M) = RET(V804M) (Homo sapiens (Human), UniProt P07949, V804M); conditions: 10000 nM, read-out: Percent Control
Chain of RET(V804M) (P07949 29-1114 V804M): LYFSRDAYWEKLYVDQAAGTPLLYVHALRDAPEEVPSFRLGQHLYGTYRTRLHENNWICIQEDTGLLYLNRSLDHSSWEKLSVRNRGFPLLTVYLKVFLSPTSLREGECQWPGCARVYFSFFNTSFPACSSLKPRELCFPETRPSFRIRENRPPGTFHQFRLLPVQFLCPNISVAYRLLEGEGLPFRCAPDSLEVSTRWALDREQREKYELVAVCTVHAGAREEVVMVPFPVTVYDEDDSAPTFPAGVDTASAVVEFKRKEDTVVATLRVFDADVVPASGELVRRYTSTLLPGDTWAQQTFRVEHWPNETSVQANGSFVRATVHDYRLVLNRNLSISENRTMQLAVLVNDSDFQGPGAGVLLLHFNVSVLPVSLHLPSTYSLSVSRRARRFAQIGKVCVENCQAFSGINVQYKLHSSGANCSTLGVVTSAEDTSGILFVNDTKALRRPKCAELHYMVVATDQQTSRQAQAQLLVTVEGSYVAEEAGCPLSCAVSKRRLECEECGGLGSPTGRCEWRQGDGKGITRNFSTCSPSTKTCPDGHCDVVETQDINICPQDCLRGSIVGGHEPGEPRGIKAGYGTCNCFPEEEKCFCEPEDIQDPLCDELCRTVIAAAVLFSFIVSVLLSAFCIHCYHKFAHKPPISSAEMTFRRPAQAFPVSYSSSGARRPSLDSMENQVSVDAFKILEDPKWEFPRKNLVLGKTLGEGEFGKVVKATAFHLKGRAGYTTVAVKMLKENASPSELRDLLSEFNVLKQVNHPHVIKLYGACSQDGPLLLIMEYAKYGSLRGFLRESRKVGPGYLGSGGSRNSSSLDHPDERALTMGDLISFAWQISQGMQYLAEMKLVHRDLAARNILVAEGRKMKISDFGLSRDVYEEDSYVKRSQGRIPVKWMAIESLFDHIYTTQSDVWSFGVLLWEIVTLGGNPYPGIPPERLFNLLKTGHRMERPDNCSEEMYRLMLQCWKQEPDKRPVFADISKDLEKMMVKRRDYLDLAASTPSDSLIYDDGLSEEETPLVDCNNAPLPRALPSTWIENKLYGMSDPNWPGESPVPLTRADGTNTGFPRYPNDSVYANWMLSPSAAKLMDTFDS

HCK = HCK (Homo sapiens (Human), UniProt P08631); conditions: 10000 nM, read-out: Percent Control
PHKG1 = PHKG1 (Homo sapiens (Human), UniProt Q16816); conditions: PHKG1, 10000 nM; read-out: Percent Control
CLK3 = CLK3 (Homo sapiens (Human), UniProt P49761); conditions: CLK3, 10000 nM; read-out: Percent Control
Chain of CLK3 (P49761 whole entry): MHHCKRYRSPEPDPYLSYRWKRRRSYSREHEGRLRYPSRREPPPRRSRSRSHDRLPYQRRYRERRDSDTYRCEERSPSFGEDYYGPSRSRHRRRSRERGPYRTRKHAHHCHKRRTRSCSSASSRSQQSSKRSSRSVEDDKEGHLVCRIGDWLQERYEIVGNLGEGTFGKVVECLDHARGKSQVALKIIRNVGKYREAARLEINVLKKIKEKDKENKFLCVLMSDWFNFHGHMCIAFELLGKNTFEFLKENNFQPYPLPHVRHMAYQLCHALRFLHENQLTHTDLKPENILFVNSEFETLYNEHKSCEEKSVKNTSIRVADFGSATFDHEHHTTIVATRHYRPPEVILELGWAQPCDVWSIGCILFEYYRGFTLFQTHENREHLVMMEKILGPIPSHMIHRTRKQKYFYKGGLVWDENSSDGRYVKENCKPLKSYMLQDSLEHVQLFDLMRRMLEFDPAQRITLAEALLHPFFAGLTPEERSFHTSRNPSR

ERK2 = ERK2 (Homo sapiens (Human), UniProt P28482); conditions: ERK2, 10000 nM; read-out: Percent Control
Chain of ERK2 (P28482 whole entry): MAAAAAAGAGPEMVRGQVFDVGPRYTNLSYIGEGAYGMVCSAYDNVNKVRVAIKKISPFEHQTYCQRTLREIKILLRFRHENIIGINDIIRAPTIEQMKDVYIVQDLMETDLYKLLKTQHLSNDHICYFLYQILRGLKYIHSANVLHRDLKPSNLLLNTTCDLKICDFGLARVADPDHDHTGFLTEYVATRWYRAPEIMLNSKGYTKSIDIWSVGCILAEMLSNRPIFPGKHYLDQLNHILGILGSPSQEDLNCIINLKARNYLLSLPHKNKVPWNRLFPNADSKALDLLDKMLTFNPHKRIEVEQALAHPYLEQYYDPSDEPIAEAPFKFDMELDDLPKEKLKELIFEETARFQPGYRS

CTK = CTK (Homo sapiens (Human), UniProt P42679); conditions: 10000 nM, read-out: Percent Control
EPHA8 = EPHA8 (Homo sapiens (Human), UniProt P29322); conditions: EPHA8, 10000 nM; read-out: Percent Control
AKT3 = AKT3 (Homo sapiens (Human), UniProt Q9Y243); conditions: AKT3, 10000 nM; read-out: Percent Control
Chain of AKT3 (Q9Y243 whole entry): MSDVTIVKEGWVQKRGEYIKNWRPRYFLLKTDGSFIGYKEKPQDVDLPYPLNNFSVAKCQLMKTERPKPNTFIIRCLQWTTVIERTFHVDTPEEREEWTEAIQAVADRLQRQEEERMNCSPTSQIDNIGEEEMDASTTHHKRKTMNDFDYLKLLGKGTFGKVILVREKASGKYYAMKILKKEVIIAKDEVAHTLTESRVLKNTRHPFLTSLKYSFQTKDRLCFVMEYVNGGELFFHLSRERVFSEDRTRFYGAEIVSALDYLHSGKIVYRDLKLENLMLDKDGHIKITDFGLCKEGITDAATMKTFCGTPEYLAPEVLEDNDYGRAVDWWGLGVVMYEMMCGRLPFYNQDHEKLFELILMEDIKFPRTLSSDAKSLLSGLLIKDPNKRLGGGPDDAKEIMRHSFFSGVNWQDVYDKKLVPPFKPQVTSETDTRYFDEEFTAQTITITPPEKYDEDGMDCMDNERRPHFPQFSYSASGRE

SIK = SIK (Homo sapiens (Human), UniProt P57059); conditions: 10000 nM, read-out: Percent Control
Chain of SIK (P57059 whole entry): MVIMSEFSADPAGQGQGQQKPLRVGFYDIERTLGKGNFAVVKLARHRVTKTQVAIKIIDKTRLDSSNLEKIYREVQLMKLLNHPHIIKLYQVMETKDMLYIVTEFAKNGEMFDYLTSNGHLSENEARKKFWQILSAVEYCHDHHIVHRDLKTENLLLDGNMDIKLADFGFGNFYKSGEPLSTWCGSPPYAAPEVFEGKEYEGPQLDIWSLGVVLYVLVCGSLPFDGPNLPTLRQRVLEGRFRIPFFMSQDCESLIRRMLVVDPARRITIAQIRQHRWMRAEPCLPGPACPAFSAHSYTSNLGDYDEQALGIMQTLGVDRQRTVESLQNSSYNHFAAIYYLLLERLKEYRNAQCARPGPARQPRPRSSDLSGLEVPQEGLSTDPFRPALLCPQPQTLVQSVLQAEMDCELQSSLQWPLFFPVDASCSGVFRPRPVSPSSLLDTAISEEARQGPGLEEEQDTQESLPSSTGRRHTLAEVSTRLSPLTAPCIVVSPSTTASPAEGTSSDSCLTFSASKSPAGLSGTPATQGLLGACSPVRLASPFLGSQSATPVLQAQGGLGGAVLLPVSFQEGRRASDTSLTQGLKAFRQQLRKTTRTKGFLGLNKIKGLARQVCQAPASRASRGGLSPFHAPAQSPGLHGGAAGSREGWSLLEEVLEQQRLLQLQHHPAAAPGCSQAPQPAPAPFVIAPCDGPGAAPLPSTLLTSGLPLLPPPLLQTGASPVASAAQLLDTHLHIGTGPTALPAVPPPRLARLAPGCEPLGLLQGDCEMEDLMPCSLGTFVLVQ

TIE2 = TIE2 (Homo sapiens (Human), UniProt Q02763); conditions: TIE2, 10000 nM; read-out: Percent Control
[2] = target: RSK2(Kin.Dom.1-N-terminal) (Homo sapiens (Human), UniProt P51812); conditions: 10000 nM, read-out: Percent Control
Chain of RSK2(Kin.Dom.1-N-terminal) (P51812 68-327): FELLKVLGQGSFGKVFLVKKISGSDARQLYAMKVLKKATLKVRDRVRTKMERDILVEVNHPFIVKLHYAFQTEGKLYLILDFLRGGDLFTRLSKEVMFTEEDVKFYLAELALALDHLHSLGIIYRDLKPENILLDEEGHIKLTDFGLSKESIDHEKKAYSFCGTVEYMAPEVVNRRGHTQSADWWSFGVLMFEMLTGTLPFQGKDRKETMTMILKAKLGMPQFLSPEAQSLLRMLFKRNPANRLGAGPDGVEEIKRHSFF

FGR = FGR (Homo sapiens (Human), UniProt P09769); conditions: 10000 nM, read-out: Percent Control
CDC2L1 = CDC2L1 (Homo sapiens (Human), UniProt P21127); conditions: CDC2L1, 10000 nM; read-out: Percent Control
PDGFRA = PDGFRA (Homo sapiens (Human), UniProt P16234); conditions: 10000 nM, read-out: Percent Control
CDK4-cyclinD3 = CDK4-cyclinD3 (Homo sapiens (Human), UniProt P11802); conditions: CDK4-cyclinD3, 10000 nM; read-out: Percent Control
EPHA3 = EPHA3 (Homo sapiens (Human), UniProt P29320); conditions: EPHA3, 10000 nM; read-out: Percent Control
EGFR = EGFR (Homo sapiens (Human), UniProt P00533); conditions: 10000 nM, read-out: Percent Control
MAP3K4 = MAP3K4 (Homo sapiens (Human), UniProt Q9Y6R4); conditions: MAP3K4, 10000 nM; read-out: Percent Control

Q: For `COc1cc(N2CCC(N3CCN(C)CC3)CC2)ccc1Nc1ncc2c(n1)N(C)c1sc(C)nc1C(=O)N2` [Compound 3, 6-((2-methoxy-4-(4-(4-methylpiperazin-1-yl)piperidin-1-yl)phenyl)amino)-2,4-dimethyl-4,9-dihydro-10H-pyrimido[5,4-b]thiazolo[5,4-e][1,4]diazepin-10-one], which remaining binding at 10 µM (EPHB4) is on record?
A: 61%

Q: And the remaining binding at 10 µM (p38-beta)?
A: 55%

Q: And the remaining binding at 10 µM (MARK2)?
A: 100%

Q: What about the remaining binding at 10 µM (PRKG2) of the same molecule?
A: 73%

Q: What about the remaining binding at 10 µM (LYN) of the same molecule?
A: 69%

Q: What about the remaining binding at 10 µM (SNARK) of the same molecule?
A: 100%

Q: And the remaining binding at 10 µM (ITK)?
A: 87%

Q: What about the remaining binding at 10 µM [1] of the same molecule?
A: 72%

Q: And the remaining binding at 10 µM (MTOR)?
A: 85%

Q: And the remaining binding at 10 µM (ROCK2)?
A: 100%

Q: What about the remaining binding at 10 µM (ERK1) of the same molecule?
A: 88%

Q: What about the remaining binding at 10 µM (RET(V804M)) of the same molecule?
A: 100%

Q: What about the remaining binding at 10 µM (HCK) of the same molecule?
A: 69%

Q: And the remaining binding at 10 µM (PHKG1)?
A: 78%

Q: What about the remaining binding at 10 µM (CLK3) of the same molecule?
A: 97%

Q: What about the remaining binding at 10 µM (ERK2) of the same molecule?
A: 60%

Q: What about the remaining binding at 10 µM (CTK) of the same molecule?
A: 98%

Q: What about the remaining binding at 10 µM (EPHA8) of the same molecule?
A: 64%

Q: What about the remaining binding at 10 µM (AKT3) of the same molecule?
A: 100%

Q: And the remaining binding at 10 µM (SIK)?
A: 69%

Q: And the remaining binding at 10 µM (TIE2)?
A: 83%

Q: And the remaining binding at 10 µM [2]?
A: 99%

Q: And the remaining binding at 10 µM (FGR)?
A: 77%

Q: And the remaining binding at 10 µM (CDC2L1)?
A: 74%

Q: And the remaining binding at 10 µM (PDGFRA)?
A: 100%

Q: What about the remaining binding at 10 µM (CDK4-cyclinD3) of the same molecule?
A: 95%

Q: And the remaining binding at 10 µM (EPHA3)?
A: 99%

Q: What about the remaining binding at 10 µM (EGFR) of the same molecule?
A: 90%

Q: What about the remaining binding at 10 µM (MAP3K4) of the same molecule?
A: 73%

Q: For `COc1cc(N2CCC(N3CCN(C)CC3)CC2)ccc1Nc1ncc2c(n1)N(C)c1sc(C)nc1C(=O)N2C` [Compound 5, 6-((2-methoxy-4-(4-(4-methylpiperazin-1-yl)piperidin-1-yl)phenyl)amino)-2,4,9-trimethyl-4,9-dihydro-10H-pyrimido[5,4-b]thiazolo[5,4-e][1,4]diazepin-10-one], which remaining binding at 10 µM (EPHB4) is on record?
A: 100%

Q: And the remaining binding at 10 µM (p38-beta)?
A: 95%

Q: And the remaining binding at 10 µM (MARK2)?
A: 100%

Q: And the remaining binding at 10 µM (PRKG2)?
A: 100%

Q: What about the remaining binding at 10 µM (LYN) of the same molecule?
A: 100%

Q: And the remaining binding at 10 µM (SNARK)?
A: 91%

Q: And the remaining binding at 10 µM (ITK)?
A: 99%

Q: What about the remaining binding at 10 µM [1] of the same molecule?
A: 63%

Q: What about the remaining binding at 10 µM (MTOR) of the same molecule?
A: 31%

Q: What about the remaining binding at 10 µM (ROCK2) of the same molecule?
A: 100%

Q: And the remaining binding at 10 µM (ERK1)?
A: 92%

Q: And the remaining binding at 10 µM (RET(V804M))?
A: 73%

Q: What about the remaining binding at 10 µM (HCK) of the same molecule?
A: 95%

Q: What about the remaining binding at 10 µM (PHKG1) of the same molecule?
A: 84%

Q: What about the remaining binding at 10 µM (CLK3) of the same molecule?
A: 97%

Q: And the remaining binding at 10 µM (ERK2)?
A: 98%

Q: And the remaining binding at 10 µM (CTK)?
A: 96%

Q: And the remaining binding at 10 µM (EPHA8)?
A: 100%

Q: What about the remaining binding at 10 µM (AKT3) of the same molecule?
A: 100%

Q: And the remaining binding at 10 µM (SIK)?
A: 100%

Q: And the remaining binding at 10 µM (TIE2)?
A: 100%

Q: And the remaining binding at 10 µM [2]?
A: 97%

Q: And the remaining binding at 10 µM (FGR)?
A: 100%

Q: What about the remaining binding at 10 µM (CDC2L1) of the same molecule?
A: 100%

Q: And the remaining binding at 10 µM (PDGFRA)?
A: 88%

Q: What about the remaining binding at 10 µM (CDK4-cyclinD3) of the same molecule?
A: 100%

Q: And the remaining binding at 10 µM (EPHA3)?
A: 100%

Q: And the remaining binding at 10 µM (EGFR)?
A: 100%

Q: And the remaining binding at 10 µM (MAP3K4)?
A: 100%

Source: patent US12365696B2, “Small-molecule focal adhesion kinase (FAK) inhibitors” (DANA-FARBER CANCER INSTITUTE, INC., priority 2019, dated 2025)
